{"source": "patent US20260263391A1", "about": "“COMPOUND AND USE THEREOF” (BENETHERA (SHAOXING) BIOTECHNOLOGY CO., LTD., priority 2023, published 2026)", "key": {"[1]": {"system": "Psoriasis mouse model", "settings": "0.025% ointment, 200 mg applied on the back for 6 consecutive days", "quoted_text": "Psoriasis mouse model was established by intradermal injection of recombinant TL-23 (1 ng/20 μL PBS, per mouse per day for 4 consecutive days) into depilated mice on the back.\nEach group was applied with different substances (as shown in Table 3) on the backs of the mice for 6 consecutive days. From Day 1, the symptoms of the back skin of the model mice and the mice in the treatment group were scored every day."}, "[2]": {"system": "Psoriasis mouse model", "test": "IL-23 psoriasis mouse model, comparative efficacy of Compound 1 ointment and Flecainide ointment, symptom score", "format": "in vivo, mice", "settings": "0.1% ointment; for therapeutic effect compared to the model group: 30 mg applied on the back for 4 consecutive days", "procedure": "(§1) Psoriasis mouse model was established by intradermal injection of recombinant […] (1 ng/20 μL PBS, per mouse per day for 4 consecutive days) into depilated mice on the back.\nEach group was applied with different substances (as shown in Table 1) on the backs of the mice for 4 consecutive days. The symptoms of the model mice and the treatment group mice were scored from Day 1.\nThe calculation rule or the number of days was: the number of days will be calculated from the end of modeling, which will be recorded as Day 0, followed by Day 1, Day 2, etc.\nThe formulation and preparation method of Flecainide ointment can be referred to as Example 4, which differed from Example 4 only in that the main drug was replaced with an equivalent amount of Flecainide (wherein the mass concentration of flecainide in the flecainide ointment was 0.1%).\n(§2) Scoring criteria: 0 points, no symptom; 1 point, skin erythema; 2 points, scattered scurf, 3 points, diffuse dandruff, 4 points, skin sclerosis; 5 points, erythroderma or death."}, "[3]": {"system": "Psoriasis mouse model", "settings": "ointment 30 mg applied for 4 consecutive days, scored on Day 6; 0.01%, 0.1%, 0.2%, 0.5%, 1% tested", "procedure": "as §1\n(§3) The calculation rule for the number of days was: the number of days will be calculated from the end of modeling, which will be recorded as Day 0, followed by Day 1, Day 2, etc.\nas §2"}, "[4]": {"system": "Psoriasis mouse model", "test": "IL-23 psoriasis mouse model, Compound 1 by subcutaneous or intradermal injection, symptom score", "format": "in vivo, mice", "settings": "for symptom score: 4 consecutive days, scored on Day 6, scale 0-5", "procedure": "as §1\nOn Day 2 after modeling, the psoriasis model mice were randomly divided into 3 groups, with the same number of mice in each group, and divided into a model group, treatment group (the treatment group included a subcutaneous treatment group and an intradermal treatment group), with the model group as a control. […] The model group was injected with 20 μL of normal saline intradermally. All three groups were injected for 4 consecutive days. On Day 6, the symptoms of the model and treatment groups were scored.\nas §3, §2"}, "[5]": {"settings": "30 mg applied on the back, scale 0-5"}}}
{"smiles": "CCCNC[C@@H](O)COc1ccccc1C(=O)CCc1ccccc1", "note": "[Compound 3, R-propafenone]", "values": [{"measurement": "treatment effect", "setting": "[1]", "result": "the treatment effect was more obvious"}]}
{"smiles": "CCCNC[C@H](O)COc1ccccc1C(=O)CCc1ccccc1", "note": "[Compound 2, S-propafenone]", "values": [{"measurement": "treatment effect", "setting": "[1]", "result": "showed no treatment effect"}]}
{"smiles": "O=C(NCC1CCCCN1)c1cc(OCC(F)(F)F)ccc1OCC(F)(F)F", "note": "(stereo not drawn) [Flecainide]", "values": [{"measurement": "therapeutic effect compared to the model group", "setting": "[2]", "result": "neither the Flecainide ointment nor the ointment alone had a therapeutic effect"}, {"measurement": "symptom score on Day 2", "setting": "[2]; [5]", "result": 3, "unit": "points"}, {"measurement": "symptom score on Days 2 to 7", "setting": "[2]; 30 mg applied on the back, Days 2 to 7, scale 0-5", "result": 3, "unit": "points"}]}
{"smiles": "CCCNCC(O)COc1ccccc1C(=O)CCc1ccccc1", "note": "(stereo not drawn) [Compound 1, propafenone]", "values": [{"measurement": "effective window dose of ointment (mass concentration) compared to the model group", "setting": "[3]", "result": "0.1%-0.5%"}, {"measurement": "therapeutic effect compared to the model group", "setting": "[2]", "result": "significant therapeutic effect"}, {"measurement": "symptom score on Day 2", "setting": "[2]; [5]", "result": 2, "unit": "points"}, {"measurement": "symptom score on Days 3 to 4", "setting": "[2]; 30 mg applied on the back, Days 3 to 4, scale 0-5", "result": 3, "unit": "points"}, {"measurement": "symptom score on Days 7 and 8", "setting": "[2]; 30 mg applied on the back, Days 7 and 8, scale 0-5", "result": 1, "unit": "points"}, {"measurement": "symptom score from Day 5", "setting": "[2]; 30 mg applied on the back, from Day 5, scale 0-5", "result": "≤ 2", "unit": "points"}, {"measurement": "therapeutic effect in dosing explorations", "setting": "[4]; intracutaneous injections at 10 μg, 20 μg, 50 μg, 100 μg, 200 μg, 500 μg, 1 mg, 2 mg, 5 mg and 10 mg", "result": "had therapeutic effects"}, {"measurement": "symptom score", "setting": "[4]; intradermal injection on the back, 0.07 mg per mouse per day", "result": "~2", "unit": "points"}, {"measurement": "therapeutic effect compared with the model group and the subcutaneous treatment group", "setting": "[4]; intradermal injection, 0.07 mg per mouse per day, Day 6", "result": "significant therapeutic effect"}, {"measurement": "symptom score", "setting": "[4]; subcutaneous injection on the back, 0.07 mg per mouse per day", "result": "~3", "unit": "points"}]}
